Assay [1] deals with Acinetobacter baumannii. The assay is described as follows: microbe, parasite or virus in culture. As to conditions: ATCC 19606, 18 h, ASSAY_TEST Inhibition of Bacterial Growth, detection method Absorption (OD600), MEDIA CAMHB, plate type 384well, NBS, CORNING #3640.
Description: Antibacterial activity against Acinetobacter baumannii ATCC 19606 (CO-ADD:GN_034); MIC in CAMBH media using NBS plates, by OD600
Assay [2] relates to HEK293. The assay can be described thus: cells. In kind it is functional, Homo sapiens, ATCC CRL1573. The conditions noted are these: Homo sapiens, ATCC CRL1573, HEK293; ASSAY_TEST Inhibition of Cell Viability; detection method Resazurin; Fluorescence (ex560/em590); MEDIA DMEM with 10% FBS; plate type 384well; TC; CORNING #3712; time 18 hr; read-out: CC50.
Assay [3] concerns Candida albicans. The assay is described as follows: microbe, parasite or virus in culture. The conditions noted are these: ATCC 90028, ASSAY_TEST Inhibition of Fungal Growth, detection method Absorption (OD530), plate type 384well, NBS, CORNING #3640.
Description: Antifungal activity against Candida albicans ATCC 90028 (CO-ADD:FG_001); MIC in YNB media using NBS plates, by OD630
Assay [4] relates to Staphylococcus aureus. The assay is described as follows: microbe, parasite or virus in culture. The conditions noted are these: ATCC 43300, 18 h, ASSAY_TEST Inhibition of Bacterial Growth, detection method Absorption (OD600), MEDIA CAMHB, plate type 384well, NBS, CORNING #3640.
Description: Antibacterial activity against Staphylococcus aureus MRSA ATCC 43300 (CO-ADD:GP_020); MIC in CAMBH media, using NBS plates, by OD(600)
Assay [5] has as its system Klebsiella pneumoniae. The assay is described as follows: microbe, parasite or virus in culture. As to conditions: ATCC 700603, 18 h, ASSAY_TEST Inhibition of Bacterial Growth, detection method Absorption (OD600), MEDIA CAMHB, plate type 384well, NBS, CORNING #3640.
Description: Antibacterial activity against Klebsiella pneumoniae MDR ATCC 70063 (CO-ADD:GN_003); MIC in CAMBH media using NBS plates, by OD(600)
For assay [6], the system named is Pseudomonas aeruginosa. The assay can be described thus: Antibacterial activity against Pseudomonas aeruginosa PAO397 [PAO1 d(mexAB-oprM) d(mexCD-oprJ) d(mexEF-oprN) d(mexJKL) d(mexXY) d(opmH)] (CO-ADD:GN_211); MIC in CAMBH media using NBS plates, by OD(600). The assay is classed as functional. As to conditions: ASSAY_TEST Inhibition of Bacterial Growth, detection method Absorption (OD600), MEDIA CAMHB, plate type 384well, CORNING #3640, time 18 hr.

Assay [7] has as its system Pseudomonas aeruginosa. The assay can be described thus: microbe, parasite or virus in culture. The conditions noted are these: ATCC 27853, 18 h, ASSAY_TEST Inhibition of Bacterial Growth, detection method Absorption (OD600), MEDIA CAMHB, plate type 384well, NBS, CORNING #3640.
Description: Antibacterial activity against Pseudomonas aeruginosa ATCC 27853 (CO-ADD:GN_042); MIC in CAMBH media using NBS plates, by OD(600)
The test system of assay [8] is Cryptococcus neoformans.
Description: Antifungal activity against Cryptococcus neoformans H99 ATCC 208821 (CO-ADD:FG_002); MIC in YNB media using NBS plates, by Resazurin OD(600-570)
In assay [9] the test system is Escherichia coli. The assay is described as follows: microbe, parasite or virus in culture. As to conditions: ATCC 25922, 18 h, ASSAY_TEST Inhibition of Bacterial Growth, detection method Absorption (OD600), MEDIA CAMHB, plate type 384well, NBS, CORNING #3640.
Description: Antibacterial activity against Escherichia coli ATCC 25922 (CO-ADD:GN_001); MIC in CAMBH media using NBS plates, by OD(600)

The structures appear in SMILES notation. ≈ marks a conversion by molar mass, not a printed value. Bounds are passed on as bounds.

A word on the CC50: it is the concentration giving 50% cytotoxicity. With `C=C(C)n1c(=O)n(Cc2ccccc2C)c2ccccc21`, the MIC in [1], in assay [3], in assay [4], in [5], in [6] and in assay [7] was more than 20 µM each time. Also, the MIC in [8] and in [9] was more than 20 µM each time. Further, the CC50 in assay [2] is more than 20 µM.

With `N[C@@H]1CN(c2c(F)cc3c(=O)c(C(=O)O)cn([C@@H]4C[C@@H]4F)c3c2Cl)CC12CC2` [SITAFLOXACIN ANHYDROUS], the MIC in assay [1] was 5 µM (≈ 2.05 µg/mL); in assay [3] it was more than 20 µM; in assay [4], 0.312 µM (≈ 0.128 µg/mL); in assay [5] it was 5 µM (≈ 2.05 µg/mL); in [6], not above 0.156 µM; in assay [7] it was 2.5 µM (≈ 1.02 µg/mL). Also, the figures for the MIC in [8] and in assay [9] were more than 20 µM and not above 0.156 µM, respectively. Moreover, in assay [2], the CC50 is more than 20 µM.

For `O=C(N[C@H](Cc1cccc2ccccc12)C(=O)NCCc1c[nH]cn1)C1Cc2ccccc2C1`, the MIC in [1], in [3], in assay [4], in assay [5], in assay [6] and in assay [7] was more than 20 µM each time. The MIC in [8] and in assay [9] was more than 20 µM in each case. Also, the half-maximal cytotoxic concentration (CC50) in [2] was more than 20 µM.

`Cc1c(OCC(F)(F)F)ccnc1C[S+]([O-])c1nc2ccccc2[nH]1` (stereo not given) [LANSOPRAZOLE]: the MIC in [1], in assay [3], in assay [4], in [5], in [6] and in [7] was more than 20 µM in each case. The MIC in [8] and in assay [9] was more than 20 µM in each case. Further, the CC50 in assay [2] was more than 20 µM.

As to `Cn1cncc1[C@@](N)(c1ccc(Cl)cc1)c1ccc2c(c1)c(-c1cccc(Cl)c1)cc(=O)n2C` [TIPIFARNIB], the MIC in assay [1] is more than 20 µM; in assay [3], more than 20 µM; in assay [4], 20 µM (≈ 9.79 µg/mL); in [5], more than 20 µM; in [6] it was more than 20 µM; in [7], more than 20 µM. Also, the MIC in assay [8] and in [9] was more than 20 µM in each case. Also, the CC50 in assay [2] came to 8.09 µM.

Regarding `COc1c(F)c(F)cc2c(=O)c(C(=O)O)cn(C3CC3)c12`, the MIC in [1] is more than 20 µM; in assay [3], more than 20 µM; in [4], 20 µM (≈ 5.9 µg/mL); in assay [5], more than 20 µM; in [6], 5 µM (≈ 1.48 µg/mL); in assay [7], 10 µM (≈ 2.95 µg/mL). The results for the MIC in assay [8] and in assay [9] were more than 20 µM and 2.5 µM (≈ 0.738 µg/mL), respectively. For the same compound, the half-maximal cytotoxic concentration (CC50) in assay [2] was more than 20 µM.

Consider `CCOC(=O)Nc1cc(NC(C)CC(C)CN(CC)CC)c2nc(-c3ccccc3)c(-c3ccccc3)nc2n1` (stereo not given), for which the MIC in assay [1], in assay [3], in assay [4], in [5], in assay [6] and in assay [7] was more than 20 µM in each case. The MIC in assay [8] and in assay [9] was more than 20 µM throughout. Further, the CC50 in assay [2] was more than 20 µM.

Consider `COc1ccc(SC(=O)N[C@H](CCC(=O)O)C(=O)O)cc1`, for which the MIC in [1], in assay [3], in assay [4], in assay [5], in [6] and in assay [7] was more than 20 µM throughout. Besides, the MIC in [8] and in assay [9] was more than 20 µM in each case. Moreover, in assay [2], the CC50 was more than 20 µM.

As for `O=[N+]([O-])c1cn2c(n1)OC[C@@H](OCc1ccc(OC(F)(F)F)cc1)C2` [PRETOMANID], the MIC in assay [1], in assay [3], in assay [4], in assay [5], in assay [6] and in assay [7] was more than 20 µM each time. Further, the MIC in [8] and in assay [9] was more than 20 µM throughout. Further, in assay [2], the CC50 is more than 20 µM.

For `O=C(NN1C(=O)[C@@H]2[C@@H]3C=C[C@@H]([C@H]4C[C@@H]34)[C@@H]2C1=O)c1ccc(C(F)(F)F)cc1` [TECOVIRIMAT], the MIC in assay [1], in assay [3], in assay [4], in assay [5], in [6] and in [7] was more than 20 µM each time. The MIC in [8] and in [9] was more than 20 µM each time. In [2], the half-maximal cytotoxic concentration (CC50) is more than 20 µM.

Regarding `CN(C)c1[nH]c(=O)ncc1F`, the MIC in [1], in assay [3], in [4], in assay [5], in assay [6] and in assay [7] was more than 20 µM throughout. For the same compound, the MIC in assay [8] and in assay [9] was more than 20 µM in each case. In assay [2], the CC50 was more than 20 µM.

Take `O=S(=O)(Nc1ccc(-n2cccc2)cc1)c1ccc(Cl)c(Cl)c1`: the MIC in [1], in assay [3], in [4], in assay [5], in assay [6] and in [7] was more than 20 µM in each case. The MIC in assay [8] and in [9] was more than 20 µM in each case. In addition, the CC50 in [2] was more than 20 µM.

For the compound `CC(C)(C)c1ccc(C(Cn2cccc(C(F)(F)F)c2=O)NC2Cc3ccccc3C2)cc1` (stereo not given), the MIC in assay [1], in assay [3], in [4], in [5], in assay [6] and in assay [7] was more than 20 µM each time. Further, the MIC in assay [8] and in assay [9] was more than 20 µM in each case. In assay [2], the CC50 was more than 20 µM.

`O=C(O)/C=C/C=C/c1cccc(Oc2cc(Cl)cc(Cl)c2)c1`: the MIC in [1], in assay [3], in assay [4], in assay [5], in [6] and in [7] was more than 20 µM throughout. Besides, the MIC in assay [8] and in assay [9] was more than 20 µM each time. Besides, the 50% cytotoxic concentration (CC50) in [2] was more than 20 µM.

Take `COc1ccc(SCC(=O)N2c3ccccc3Sc3ccccc32)cc1`: the MIC in assay [1], in assay [3], in assay [4], in assay [5], in [6] and in assay [7] was more than 20 µM throughout. Moreover, the MIC in assay [8] and in assay [9] was more than 20 µM each time. The CC50 in assay [2] was more than 20 µM.

Regarding `NCc1ccc(S(N)(=O)=O)cc1` [MAFENIDE], the MIC in [1], in [3], in assay [4], in assay [5], in assay [6] and in assay [7] was more than 20 µM in each case. Moreover, the MIC in [8] and in assay [9] was more than 20 µM in each case. In addition, the CC50 in assay [2] is more than 20 µM.

For `O=c1cc(NCCCN[C@@H]2CCOc3c(Br)cc(Br)cc32)[nH]c2ccsc12` [CRS-3123], the MIC in assay [1] was more than 20 µM; in [3], more than 20 µM; in [4], 0.312 µM (≈ 0.16 µg/mL); in assay [5] it was more than 20 µM; in assay [6], 20 µM (≈ 10.3 µg/mL); in [7], more than 20 µM. The MIC in [8] and in assay [9] was more than 20 µM throughout. For the same compound, the cytotoxic concentration (CC50) in assay [2] was more than 20 µM.

As to `N#Cc1cc([N+](=O)[O-])ccc1Oc1ccccc1Cl`, the MIC in assay [1], in assay [3], in assay [4], in assay [5], in assay [6] and in [7] was more than 20 µM in each case. Further, the MIC in assay [8] and in assay [9] was more than 20 µM in each case. Further, the CC50 in assay [2] was more than 20 µM.

Regarding `Cc1cc(-c2ccccc2)c(C(=O)C(=O)Nc2ccc(N3CCN(c4ncc(F)cn4)CC3)cc2)n1C` [OLOROFIM], the MIC in assay [1], in [3], in assay [4], in [5], in assay [6] and in assay [7] was more than 20 µM throughout. In addition, the MIC in [8] and in assay [9] was more than 20 µM each time. Also, the CC50 in assay [2] was more than 20 µM.

In the case of `Cc1cc(CCOc2c(C)cc(-c3nnn(C)n3)cc2C)on1`, the MIC in assay [1], in assay [3], in [4], in assay [5], in assay [6] and in [7] was more than 20 µM each time. The MIC in [8] and in assay [9] was more than 20 µM in each case. The CC50 in [2] was more than 20 µM.

For the origin of these results see ChEMBL document CHEMBL4513161, “CO-ADD screening of MMV (CH) - Pandemic Response Box” (2021).
